# According to ChEMBL document CHEMBL5316307, “Searching for Novel Noncovalent Nuclear Export Inhibitors through a Drug Repurposing Approach” (J Med Chem, 2023):
# Active and inactive are the calls of the source. The calls are words filed in the database; no cut-off is given here.
# How the values were obtained:
# [1] = Stability of the compound at 100 uM in presence of DTT; type: physicochemical
# HGC-27 = assay: Cytotoxicity against human HGC-27 cells assessed as inhibition of cell growth incubated for 72 hrs by SRB assay; type: functional, cell-based; settings: HGC-27, 72 h
# Exportin-1 [2] = target: T1, Exportin-1 (Homo sapiens, UniProt O14980); assay: Inhibition of human CRM1 at 50 uM by GST-NES MVM based pulldown assay
# T1 sequence (O14980 whole entry): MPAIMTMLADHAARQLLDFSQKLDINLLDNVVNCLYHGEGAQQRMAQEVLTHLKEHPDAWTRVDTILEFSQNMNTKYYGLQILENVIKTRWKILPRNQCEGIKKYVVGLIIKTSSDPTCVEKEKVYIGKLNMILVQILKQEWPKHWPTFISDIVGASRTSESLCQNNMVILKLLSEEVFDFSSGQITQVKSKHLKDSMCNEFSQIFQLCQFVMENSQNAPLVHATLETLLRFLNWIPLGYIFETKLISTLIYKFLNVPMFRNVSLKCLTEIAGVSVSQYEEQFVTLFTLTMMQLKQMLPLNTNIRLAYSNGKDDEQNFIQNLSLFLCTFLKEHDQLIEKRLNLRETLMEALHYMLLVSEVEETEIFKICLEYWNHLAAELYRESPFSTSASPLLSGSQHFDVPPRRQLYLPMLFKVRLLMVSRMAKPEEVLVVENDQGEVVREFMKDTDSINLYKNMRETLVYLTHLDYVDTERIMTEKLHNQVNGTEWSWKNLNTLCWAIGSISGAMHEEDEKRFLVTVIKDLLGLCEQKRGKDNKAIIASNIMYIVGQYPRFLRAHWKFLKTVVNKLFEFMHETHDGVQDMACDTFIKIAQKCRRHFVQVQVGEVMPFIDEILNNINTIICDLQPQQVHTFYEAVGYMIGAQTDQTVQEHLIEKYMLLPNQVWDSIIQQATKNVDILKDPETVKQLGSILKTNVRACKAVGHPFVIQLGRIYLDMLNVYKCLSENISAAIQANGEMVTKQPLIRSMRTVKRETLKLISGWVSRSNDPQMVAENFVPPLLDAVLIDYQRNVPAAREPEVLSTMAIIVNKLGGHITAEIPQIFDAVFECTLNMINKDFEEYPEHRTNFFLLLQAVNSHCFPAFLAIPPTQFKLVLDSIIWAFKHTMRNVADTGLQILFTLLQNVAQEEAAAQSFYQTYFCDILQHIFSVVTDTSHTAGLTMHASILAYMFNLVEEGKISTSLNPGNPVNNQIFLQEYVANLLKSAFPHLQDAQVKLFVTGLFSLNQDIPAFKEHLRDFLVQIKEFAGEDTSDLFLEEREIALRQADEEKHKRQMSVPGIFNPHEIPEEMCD
# Exportin-1 [3] = target: T1, Exportin-1; assay: Binding affinity to CRM1 in human HeLa cells assessed as thermal stabilization at 100 uM at 4 to 90 degreeC incubated for 3 mins by […] analysis; type: cell-based
# Exportin-1 [4] = target: T1, Exportin-1; assay: Inhibition of human CRM1 at 3 to 30 uM by GST-NES MVM based pulldown assay; settings: dose 3-30 µM
# Exportin-1 [5] = target: T1, Exportin-1; assay: Non-covalent inhibition of human CRM1 at 100 uM by GST-NES MVM based pulldown assay
# [6] = tested on: Exportin-1 (Homo sapiens), O14980 [C528S]; assay: Inhibition of human CRM1 C7 fragment C528S mutant at 50 to 100 uM by GST-NES MVM based pulldown assay; settings: dose 50-100 µM
# Exportin-1 (Homo sapiens), O14980 [C528S], sequence (O14980 whole entry C528S, the tested form may be a part): as the sequence (O14980 whole entry) above, with C528S counted along it
# A2780 = assay: Cytotoxicity against human A2780 cells assessed as inhibition of cell growth at 50 uM incubated for 72 hrs by SRB assay; type: functional, cell-based
# Exportin-1 [7] = target: T1, Exportin-1; assay: Inhibition of CRM1 in semi-permeabilized human HeLa cells transfected with GFP-NES-NLS fusion plasmid assessed as inhibition of nuclear export of cargoes at 50 to 100 uM incubated for 30 mins by immunostaining analysis; type: cell-based; settings: dose 50-100 µM
# HepG2 = assay: Cytotoxicity against human HepG2 cells assessed as inhibition of cell growth at 50 uM incubated for 72 hrs by SRB assay; type: functional, cell-based
# MDA-MB-453 [8] = assay: Synergistic cytotoxicity against human MDA-MB-453 cells assessed as combination index at 100 uM incubated for 3 days in presence of 10 nM doxorubicin by SRB assay; type: functional; settings: time 3 day
# Exportin-1 [9] = target: T1, Exportin-1; assay: Inhibition of CRM1 in intact human HeLa cells transfected with GFP-NES-NLS fusion plasmid assessed as inhibition of nuclear export of cargoes at 200 uM incubated for 30 mins by immunostaining analysis; type: cell-based
# Exportin-1 [10] = target: T1, Exportin-1; assay: Binding affinity to NES groove of human CRM1 C7 fragment at 50 to 100 uM by GST-NES MVM based pulldown assay; settings: dose 50-100 µM
# MDA-MB-453 [11] = assay: Synergistic cytotoxicity against human MDA-MB-453 cells assessed as combination index at 100 uM incubated for 3 days in presence of 810 nM doxorubicin by SRB assay; type: functional; settings: time 3 day
# PANC-1 = assay: Cytotoxicity against human PANC-1 cells assessed as inhibition of cell growth at 50 uM incubated for 72 hrs by SRB assay; type: functional, cell-based
# MDA-MB-453 [12] = assay: Synergistic cytotoxicity against human MDA-MB-453 cells assessed as combination index at 100 uM incubated for 3 days in presence of 270 nM doxorubicin by SRB assay; type: functional; settings: time 3 day
# Ishikawa = assay: Cytotoxicity against human Ishikawa cells assessed as inhibition of cell growth at 50 uM incubated for 72 hrs by SRB assay; type: functional, cell-based
# SW480 = assay: Cytotoxicity against human SW480 cells assessed as inhibition of cell growth at 50 uM incubated for 72 hrs by SRB assay; type: functional, cell-based
# MDA-MB-453 [13] = assay: Cytotoxicity against human MDA-MB-453 cells assessed as inhibition of cell growth at 50 uM incubated for 72 hrs by SRB assay; type: functional, cell-based
# MDA-MB-453 [14] = assay: Synergistic cytotoxicity against human MDA-MB-453 cells assessed as combination index at 100 uM incubated for 3 days in presence of 30 nM doxorubicin by SRB assay; type: functional; settings: time 3 day
# MGC-803 = assay: Cytotoxicity against human MGC-803 cells assessed as inhibition of cell growth at 50 uM incubated for 72 hrs by SRB assay; type: functional, cell-based
# MDA-MB-453 [15] = assay: Synergistic cytotoxicity against human MDA-MB-453 cells assessed as combination index at 100 uM incubated for 3 days in presence of 90 nM doxorubicin by SRB assay; type: functional; settings: time 3 day
# Exportin-1 [16] = target: T1, Exportin-1; assay: Competitive inhibition of human CRM1 assessed as dissociation constant incubated in presence of RanGTP and IAF-conjugated protein kinase inhibitor peptide by MST assay
# HeLa = assay: Cytotoxicity against human HeLa cells assessed as inhibition of cell growth at 50 uM incubated for 72 hrs by SRB assay; type: functional, cell-based
structure (smiles),measurement,setting,value
CC(C)CCNC/C=C/[S+]([O-])c1cc(C(F)(F)F)cc(C(F)(F)F)c1 (stereo unspecified),Stability,[1],Unstable
COc1cc(C(=O)N(C)S(=O)(=O)c2ccccc2C)ccc1Cc1cn(C)c2ccc(NC(=O)OC3CCCC3)cc12,IC50,HGC-27,285 µM
same,inhibition,Exportin-1 [2],inactive
same,inhibition,Exportin-1 [2]; tested as the 2H-labelled form,inactive
same,Activity,Exportin-1 [3],inactive
[2H]C([2H])([2H])N(C(=O)c1ccc(Cc2cn(C)c3ccc(NC(=O)OC4CCCC4)cc23)c(OC)c1)S(=O)(=O)c1ccccc1C,IC50,HGC-27,457 µM
COC(=O)Nc1ccc2c(c1)c(Cc1ccc(C(=O)NS(=O)(=O)c3ccccc3C)cc1OC)cn2C,IC50,HGC-27,44 µM
same,inhibition,Exportin-1 [4],Active
COc1cc(C(=O)NS(=O)(=O)c2cccc(C)c2)ccc1Cc1cn(C)c2ccc(NC(=O)OC3CCCC3)cc12,IC50,HGC-27,44 µM
same,inhibition,Exportin-1 [4],Active
COc1cc(C(=O)NS(=O)(=O)c2ccc(C)cc2)ccc1Cc1cn(C)c2ccc(NC(=O)OC3CCCC3)cc12,IC50,HGC-27,44 µM
CC(O)(CS(=O)(=O)c1ccc(F)cc1)C(=O)Nc1ccc(C#N)c(C(F)(F)F)c1 (stereo unspecified),inhibition,Exportin-1 [5],inactive
N[C@@H](CC(=O)N1CCn2c(nnc2C(F)(F)F)C1)Cc1cc(F)c(F)cc1F,inhibition,Exportin-1 [5],inactive
O=C(/C=C\n1cnc(-c2cc(C(F)(F)F)cc(C(F)(F)F)c2)n1)NNc1cnccn1,inhibition,[6],Active
COc1cc(C(=O)NS(=O)(=O)c2ccccc2C)ccc1Cc1cn(C)c2ccc(NC(=O)OC3CCCC3)cc12 [ZAFIRLUKAST],inhibition,A2780,Active
same,inhibition,Exportin-1 [7],Active
same,IC50,HGC-27,44 µM
same,inhibition,Exportin-1 [5],Active
same,inhibition,HepG2,Active
same,CI,MDA-MB-453 [8],0.78
same,inhibition,Exportin-1 [9],Active
same,Activity,Exportin-1 [10],Active
same,CI,MDA-MB-453 [11],0.58
same,Activity,Exportin-1 [3],Active
same,inhibition,PANC-1,Active
same,CI,MDA-MB-453 [12],0.88
same,inhibition,Ishikawa,Active
same,inhibition,[6],inactive
same,inhibition,SW480,Active
same,inhibition,MDA-MB-453 [13],Active
same,CI,MDA-MB-453 [14],0.78
same,Stability,[1],Stable
same,inhibition,MGC-803,Active
same,CI,MDA-MB-453 [15],0.78
same,Kd,Exportin-1 [16],10 µM
same,inhibition,HeLa,Active
